In the METLIN SMRT retention time set (Domingo-Almenara et al. 2019) one finds RP-LC retention time data, which are given here for 79 compounds.

A short description of the data set: gradient 5% acetonitrile 3 min, to 50% in 2 min, to 85% in 15 min, held 3 min, 100 µL/min. The settings on record: column: Zorbax Extend-C18 2.1 x 50 mm; eluents: water / acetonitrile, 0.1% formic acid. The method in brief:
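Each retention time is based on an adduct peak selected computationally and verified by manual inspection. Measurements used HPLC–quadrupole time-of-flight mass spectrometry in positive and negative ionization mode on mixtures of ~100 pure standards. Chromatography ran on a Zorbax Extend-C18 column (2.1 × 50 mm, 1.8 μm) at 100 μL/min with water and acetonitrile, each containing 0.1% formic acid, and dead and dwell volumes of 40 μL and 900 μL.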
With `Cc1nn2c(S(=O)(=O)N3CCN(C4CCCCC4)CC3)c(C)nc2s1`, the RP-LC retention time came to 608 s.

`Cc1nnc(C2CCCCCN2C(=O)c2cn[nH]c2)o1` (centres undefined) showed an RP-LC retention time of 597 s.

Consider `O=C1[C@H]2CN(Cc3ccncc3)C[C@H]2C(=O)N1Cc1ccc2c(c1)OCO2`, for which the RP-LC retention time stood at 605 s.

In turn, `COC[C@@H]1CN(S(=O)(=O)c2ccc(C(C)C)cc2)C[C@H]1c1ccccn1` displayed an RP-LC retention time of 895 s.

On to `Cc1ccc(C)c(NC(=O)Nc2ccc3nncn3c2)c1`, for which the RP-LC retention time was found to be 747 s.

Turning to `COc1ccc2[nH]c(=O)c(CCC(=O)NCc3ccc(OC)c(OC)c3)cc2c1`, the RP-LC retention time stood at 648 s.

In turn, `Cc1ccc(-c2ccc(N3CCCC(C(=O)NCCN4CCC(C)CC4)C3)nn2)cc1` (centres undefined) returned an RP-LC retention time of 594 s.

As to `COC(=O)c1c(NCCc2c[nH]c3ccccc23)c2cc(F)ccc2[nH]c1=O`, the RP-LC retention time was determined as 770 s.

`Cc1cccc2nnc(N3CCC(C(=O)NCc4ccccc4F)CC3)n12` registered an RP-LC retention time of 591 s.

For `O=C1CC(C(=O)N2CCN(Cc3ccccc3)CC2)CN1CCc1ccccc1` (centres undefined), the RP-LC retention time was 740 s.

As for `CN1C(=O)CCc2cc(NS(=O)(=O)c3ccc(Br)cc3)ccc21`, the RP-LC retention time amounted to 810 s.

Compound `Cc1ccc(-c2csc(NC(=O)c3ccc(Br)cc3)n2)c(C)c1` displayed an RP-LC retention time of 1270 s.

As to `Cc1nc(-c2ccc(NC(=O)c3ccc([N+](=O)[O-])cc3)cc2)cs1`, the RP-LC retention time was found to be 855 s.

`Cc1noc(C)c1S(=O)(=O)N1CCC(Cc2nc(-c3ccncc3)n[nH]2)C1` (centres undefined): the RP-LC retention time turned out to be 619 s.

Consider `Cc1c(F)cccc1NC(=O)N(C)CC1CCOC1` (centres undefined), for which the RP-LC retention time is 745 s.

Turning to `Cc1cc(N2C=C(C#N)S(=O)(=O)c3ccc(F)cc32)ccc1Br`, the RP-LC retention time is 979 s.

Compound `Cc1c(C(=O)NCC(C)C)cnn1-c1ccc(-c2nc(C(C)C)no2)cn1` returned an RP-LC retention time of 1050 s.

On to `O=C(COc1ccc2ccccc2c1)NCC1CCN(C2CCCC2)CC1`, for which the RP-LC retention time worked out at 590 s.

Consider `O=C(Nc1nc2c(s1)CN(C(=O)Cn1c(=O)oc3ccccc31)CC2)C1CCCO1` (centres undefined), for which the RP-LC retention time was found to be 665 s.

On to `Cc1noc(C)c1CCC(=O)N1CC(c2nc3ccccc3[nH]2)C1`, for which the RP-LC retention time was determined as 552 s.

Turning to `COC(=O)c1sc2cccc(F)c2c1S(=O)(=O)N1CCC(C(N)=O)(N2CCCCC2)CC1`, the RP-LC retention time was found to be 649 s.

With `CC(C)c1ccc(-n2ccnc(NC(=O)Nc3cccc(F)c3)c2=O)cc1`, the RP-LC retention time amounted to 1140 s.

Turning to `COc1ccc(-c2ccc(S(=O)(=O)NCc3ccc(C(=O)O)cc3)cc2)cc1`, the RP-LC retention time came to 801 s.

In turn, `CC1(C(=O)NCc2ccc3c(c2)OCO3)CCCCC(=O)N1` (centres undefined) registered an RP-LC retention time of 642 s.

With `COc1cccc(CNC(=O)Nc2c(-c3ccc(F)cc3)nc3ccccn23)c1`, the RP-LC retention time was 652 s.

`O=C(CSc1ccc(N2CCCC(C(=O)NC3CC3)C2)nn1)NCc1cc(F)cc(F)c1` (centres undefined) showed an RP-LC retention time of 642 s.

Take `CN1c2cc(F)ccc2C(=O)NC12CCN(C(=O)c1ccc(Cl)cc1)CC2`: the RP-LC retention time was found to be 785 s.

In the case of `Cc1noc(C2(NC(=O)c3ccc(Br)cc3)CCCCC2)n1`, the RP-LC retention time came out at 924 s.

In turn, `Cc1ccc(Cn2nc3ccc(S(=O)(=O)N4CCCCC4)cn3c2=O)cc1` gave an RP-LC retention time of 952 s.

For `COc1ccc(-c2cc(N3CCN(C(=O)c4ccc(C(C)(C)C)cc4)CC3)ncn2)cc1`, the RP-LC retention time is 795 s.

For the compound `CC(=O)N1CCC(C(=O)N2CCCCCCNC(=O)[C@@H]3CCCC[C@@H]32)CC1`, the RP-LC retention time was 657 s.

`O=C(Nc1cnc(N2CCN(CCOc3ccc(Cl)cc3)CC2)c(C(=O)O)c1)c1cccs1` showed an RP-LC retention time of 683 s.

As to `O=C([C@@H]1C[C@H](F)CN1C(=O)Nc1cccc(Cl)c1)N1CCCCC1`, the RP-LC retention time was found to be 747 s.

In turn, `Cc1ccc(NS(=O)(=O)c2cc3n(c2)CCN(CC(C)C)C3=O)c(C)c1` gave an RP-LC retention time of 841 s.

In turn, `O=C(CN1CCC2(CC1)N=C(c1ccc(Cl)cc1)C(=O)N2)NCc1ccc2c(c1)OCO2` yielded an RP-LC retention time of 680 s.

`CCC(C)NC(=O)N1CCc2c(c(-c3nc(-c4ccc(F)cc4)no3)nn2C)C1` (centres undefined): the RP-LC retention time came to 594 s.

The compound `COCc1cc(=O)n(CC(=O)Nc2cccc(Cl)c2)c(N)n1` returned an RP-LC retention time of 635 s.

The compound `Fc1ccc(-n2cc(-c3noc(-c4nccc5ccccc45)n3)nn2)cc1` returned an RP-LC retention time of 1120 s.

`CC1CCCCN1CCNS(=O)(=O)c1ccccc1-c1nc(-c2cccc(F)c2)no1` (centres undefined) showed an RP-LC retention time of 746 s.

Turning to `CCCCN(C)C(=O)C(C)n1nc(C)c2nn(-c3ccccc3)c(-n3cccc3)c2c1=O` (centres undefined), the RP-LC retention time came out at 1010 s.

In turn, `Cn1cc(-c2cc3n(n2)CCC(=O)N3CC(=O)NCCCN2CCOCC2)c2ccccc21` registered an RP-LC retention time of 603 s.

In turn, `CCn1c(C(=O)N2CCCC(C(=O)NC(C)C34CC5CC(CC(C5)C3)C4)C2)cc2sccc21` (centres undefined) showed an RP-LC retention time of 1210 s.

For `CCN1C(=O)COc2ccc(-c3csc(NC(=O)c4ccc(Cl)cc4)n3)cc21`, the RP-LC retention time is 1090 s.

For the compound `O=C(Nc1ccccc1F)N1CCC(n2cnc3ccc(Cl)cc3c2=O)CC1`, the RP-LC retention time was 806 s.

As for `CC(C)NC(=O)c1ccc(Cn2cncn2)cc1`, the RP-LC retention time came out at 597 s.

The compound `Cc1ccc(S(=O)(=O)N2CCC(CCC(=O)NCc3cccc(C)c3)CC2)cc1` returned an RP-LC retention time of 956 s.

`COc1ccc(OC)c(CNS(=O)(=O)c2cc(-c3nc(C)c(C)s3)sc2C)c1` displayed an RP-LC retention time of 1030 s.

Regarding `O=C(c1noc2c1CSc1ccccc1-2)N1CCN(c2ccccn2)CC1`, the RP-LC retention time stood at 719 s.

In turn, `CN(Cc1ccccc1)C(=O)c1cc2n(n1)CC(C)(C(=O)NC1CCCCCC1)N(C)C2=O` (centres undefined) showed an RP-LC retention time of 866 s.

`Cc1ccccc1NC(=O)N1C[C@@H]2CN(S(=O)(=O)c3ccc(F)cc3)C[C@H](C1)O2` registered an RP-LC retention time of 786 s.

As to `CC(=O)N1CCN(c2nc3c(s2)CC(C(=O)N2CCCCC2)CC3)CC1` (centres undefined), the RP-LC retention time was determined as 548 s.

The compound `O=C(Nc1ccc(NC(=O)N2CCCC(C(=O)NCC3CC3)C2)cc1)NC1CCCC1` (centres undefined) displayed an RP-LC retention time of 692 s.

With `O=C(NCc1cc(F)cc(F)c1)C1CCN(C(=O)c2ncn3c2COC(c2ccc(F)cc2)C3)CC1` (centres undefined), the RP-LC retention time turned out to be 802 s.

Take `Cc1ccc(-n2c(=O)c3sccc3n(Cc3nc(-c4ccc(F)cc4)no3)c2=O)cc1`: the RP-LC retention time is 1030 s.

As to `O=C(NCC1CCN(C(=O)Nc2ccc(F)cc2)CC1)c1ccccn1`, the RP-LC retention time was determined as 674 s.

In turn, `O=C(c1cccs1)N1CCC(n2c(C3CCCC3)nc3cccnc32)C1` (centres undefined) displayed an RP-LC retention time of 653 s.

With `Cc1cc(F)ccc1NC(=O)C1CCN(S(=O)(=O)c2cc(C(=O)N3CCOCC3)cs2)CC1`, the RP-LC retention time amounted to 759 s.

In turn, `O=C(C1=NN(CCc2ccccc2)c2ccccc2S1(=O)=O)N1CCCCCC1` displayed an RP-LC retention time of 1020 s.

`O=C(c1cccc(N2CCNC(c3ccccc3)C2)n1)N1CCCN(c2ncccn2)CC1` (centres undefined) yielded an RP-LC retention time of 609 s.

As for `COc1ccc(-c2noc(C3CCCN3C(=O)c3cc(Cl)ccc3OC)n2)cc1` (centres undefined), the RP-LC retention time was found to be 1020 s.

Compound `C=CCN1CCc2c(cc(O)c(O)c2Br)[C@@H](c2ccccc2)C1` showed an RP-LC retention time of 670 s.

The compound `Cc1cc(Cl)ccc1S(=O)(=O)N1CCc2nn(C)c(=O)n2CC1` had an RP-LC retention time of 756 s.

Compound `O=c1n(CCc2ccccc2)nc2c(S(=O)(=O)N3CCCCCC3)cccn12` registered an RP-LC retention time of 1000 s.

On to `CCOC(=O)C1CCC(CNC(=O)Nc2ccc3nc(N4CCN(C)CC4)cc(C)c3c2)CC1` (centres undefined), for which the RP-LC retention time was 584 s.

Regarding `Cn1cc(C(=O)NCc2cccs2)c2cccnc21`, the RP-LC retention time was 691 s.

In turn, `CCn1c(=O)c(N2CCC(C(=O)NCCCN3CCCC(C)C3)CC2)nc2cccnc21` (centres undefined) registered an RP-LC retention time of 640 s.

`O=C(NCCc1c[nH]c2ccc(Cl)cc12)c1ccncc1` displayed an RP-LC retention time of 639 s.

Consider `CCc1ccc(S(=O)(=O)N2CCC3(CC2)NCCN=C3NCc2cccc(OC)c2)cc1`, for which the RP-LC retention time was 775 s.

The compound `CN(C1CCCCC1)S(=O)(=O)c1ccc(NC(=O)c2ccco2)cc1` gave an RP-LC retention time of 883 s.

Take `Cc1ccc(-c2nnc(N3CCC(C(=O)NCCCN4CCCC4=O)CC3)o2)cc1`: the RP-LC retention time was found to be 660 s.

In turn, `Cc1ccc(-c2nc(-n3c(C)c4c(C)nnc(C)c4c3C)sc2C)cc1C` had an RP-LC retention time of 832 s.

Regarding `CC(C)(C)NCC(O)COc1cccc2[nH]c(=O)[nH]c12` (centres undefined), the RP-LC retention time amounted to 603 s.

With `O=C(NCCc1ccccc1)C(=O)c1ccc[nH]1`, the RP-LC retention time was determined as 824 s.

`O=C(Nc1ccc(F)c(F)c1)C1CCN(S(=O)(=O)c2ccc(-c3noc(C4CC4)n3)cc2)CC1` displayed an RP-LC retention time of 1050 s.

For the compound `O=C1NC(C(=O)Nc2ccc3c(c2)OCCO3)Cn2cccc21` (centres undefined), the RP-LC retention time is 643 s.

`Cc1ccccc1-n1ccn(Cc2nc(-c3ccccc3)no2)c(=O)c1=O` had an RP-LC retention time of 809 s.

As for `CCOc1ccc(C2Cn3nnc(-c4nc(-c5cccc(Cl)c5)no4)c3CO2)cc1` (centres undefined), the RP-LC retention time was 1320 s.

The compound `CN(CC(=O)O)c1nc2c(Cl)cc(Cl)cc2s1` had an RP-LC retention time of 888 s.

With `CCCCn1nnnc1NCc1ccc2c(c1)n(C)c(=O)n2C`, the RP-LC retention time is 647 s.
